Results taken from paper PMC11788822, “Uncovering the potent antimicrobial activity of squaramide based anionophores – chloride transport and membrane disruption” (Chemical Science, 2025).
Where two headings read alike, the source gives them in different places.

Tests used:
S. aureus [1] = experiment: Growth inhibition assay, S. aureus; format: cell-based, Staphylococcus aureus; settings: Staphylococcus aureus, 24 h, growth (OD 600 nm) relative to control, 37 °C
Experimental: (§1) To determine IC50/80 values, growth (optical density) of S. aureus, methicillin-resistant S. aureus (MRSA), P. aeruginosa, and K. pneumoniae when treated with a range of concentrations of each active compound in vitro was measured at 600 nm after a 24 h incubation period at 37 °C. Each compound was studied for activity below […], and those showing little activity above 200 μM, were noted as such, and omitted from further study.
Staphylococcus aureus culture conditions
S. aureus (ATCC33951) was cultured at 37 °C in Nutrient broth (Oxoid), in an orbital shaker at 200 rpm. Stocks were kept on nutrient agar, stored at 4 °C for up to 2 months, or as glycerol stocks (50/50 glycerol:culture), stored at -70 °C indefinitely. […]
(§2) Bacterial cultures were brought to early stationary phase overnight, in nutrient broth (containing 25/50 µg/mL Ampicillin for MRSA/K. pneumoniae, respectively) at 37 °C. Cultures were diluted to an OD600 = 0.01. Aliquots of Culture (100 µl) were added to 100 µL serially diluted compound (200 – 0.78 µM) in nutrient broth in a 96-well plate (Sarstedt, Germany).
(§3) Plates were incubated at 37 °C for 24 h and growth was measured at 600 nm, where growth was measured and represented relative to control. […]

S. aureus [2] = experiment: Modified MTT assay of cellular respiration; format: cell-based, Staphylococcus aureus; settings: HBSS, Cl− free HBSS or Na+ free HBSS buffer, 5 h treatment
Description: To further probe the relationship between anion homeostasis and antimicrobial effect, a modified MTT assay was used next to monitor disruption of cellular respiration in the presence of 1, 2, or 4 either with abundant Cl^− and Na^+, in the absence of Cl^−, or in the absence of Na^+ (Fig. 3). […] Chew and co-workers have reported on the behaviours, and dynamics of adamantylamines in the lipid bilayers, and discussed that adamantylamines show a preferential accumulation in the interfacial layer of lipid bilayers[46] and thus we suspected that these compounds, with an identical pharmacophore may behave in a similar manner accumulating in lipid bilayers of bacterial membranes.[47,48] […]
or measured over the course of 2 hrs, starting at T0 (upon addition of compound).
Alternatively, 200 µL aliquots of cell suspension were added to a 96-well plate, to the desired quantity, and were either untreated (control), or treated with the compound of interest for 5 mins, whereafter fluorescence was read using a BMG Labtech Clariostar Plus platereader, and plotted relative to control.
From an overnight culture of S. aureus brought to stationary phase (OD600 = ~1.0), was taken samples which were diluted to an OD600 = ~0.2 in either Hank’s buffered salt solution, Cl- free HBSS buffer, or Na+ free buffer. Samples were treated with the respective compound for 5 h at 37 0C. Subsequently, Cell densities for each of the samples were standardised to an OD600 = 0.15, in the relevant buffer system. To each sample was added Triphenyl Tetrazolium Chloride (TTC), to a final concentration of 0.5 mg/mL. 100 µL of each sample was placed into the wells of a 96-well place in 8 replicates. Samples were incubated at 37 0C for 18 h, and subsequently supernatant was removed from each well, taking care as to not disturb the Formazan precipitate. To each well was then added 100 µL DMSO, with repeated pipetting to solubilise precipitate. Samples were read using a microplate reader at 550 nm & plotted as percentage cell viability relative to control. […]

[3] = tested on: methicillin-resistant S. aureus (MRSA); experiment: Growth inhibition assay, MRSA; format: cell-based, Staphylococcus aureus; settings: 24 h
Experimental: as §1
Staphylococcus aureus culture conditions […]
Methicillin-resistant Staphylococcus aureus culture conditions
Methicillin-resistant S. aureus (clinical isolate – St. James’ University Hospital, Dublin) was cultured at 37 °C in Nutrient broth (Oxoid), containing 25 µg/mL Ampicillin in an orbital shaker at 200 rpm. Stocks were kept on nutrient agar containing 25 µg/mL Ampicillin, stored at 4 °C for up to 2 months, or as glycerol stocks (50/50 glycerol:culture), stored at -70 °C indefinitely. […]
as §2, §3

[4] = 1H NMR titration with TBACl, Cl− binding; settings: association constant towards Cl−, compound 2.5 mM, 95% DMSO-d6, 1:1 binding model (Bindfit), errors below 10%
Experimental: To verify if 1–6 formed host–guest complexes with Cl^− in solution, ^1H NMR titrations of each compound (2.5 mM) with TBACl were carried out in DMSO-d6. Increasing equivalents of Cl^− were incrementally added, with spectral information obtained upon addition of each molar equivalent of Cl^−. […] Taking 1 as an example (Fig. 2), upon addition of sequential aliquots of Cl^− there is a clear downfield shift of both squaramide NHs, with minor contributions to the binding cleft derived from the ortho-aryl protons of the aniline of 1. The binding data from each titration was fitted to a 1 : 1 binding model using the Bindfit[36] open access software, and the results are tabulated below (Table 1), alongside the respective Hammett constant for the relevant substitution pattern.[37] […] This aligns with previously reported receptors,[38] where compounds containing CF3 substituents in particular are known to have increased anion binding affinity as well as transport ability.[39]

[5] = Staphylococcus aureus, MRSA, read-out: MRSA IC50, growth (OD 600 nm) relative to control, 24 h, 37 °C
[6] = Staphylococcus aureus, MRSA, read-out: MRSA IC80, growth (OD 600 nm) relative to control, 24 h, 37 °C

Row | Structure (SMILES) | IC80 (S. aureus [1]) | IC50 (S. aureus [1]) | effect on cellular respiration (MTT) (S. aureus [2]) | IC50 [3, 5] | IC80 [3, 6] | IC50 ([3]; read-out: MRSA IC50, growth (OD 600 nm) relative to control, 37 °C) | K a [4] | MRSA IC80 ([3]; growth (OD 600 nm) relative to control, 37 °C) | IC80 ([3]; read-out: MRSA IC80, growth (OD 600 nm) relative to control, 37 °C)
1 | O=c1c(Nc2cc(C(F)(F)F)cc(C(F)(F)F)c2)c(NC23CC4CC(CC(C4)C2)C3)c1=O [Compound 1] | ~200 µM | 0.781 µM | concentration dependent decrease in cellular respiration | 1.56 µM | 200 µM | 1.6 µM | 235 M⁻¹ |  | 
2 | O=c1c(Nc2ccc(Cl)c(Cl)c2)c(NC23CC4CC(CC(C4)C2)C3)c1=O [Compound 2] | 250 µM | 62.5 µM | concentration dependent decrease in cellular respiration | 25 µM | > 200 µM |  | 263 M⁻¹ | exceeded the testing range | 
3 | O=c1c(Nc2ccc([N+](=O)[O-])cc2)c(NC23CC4CC(CC(C4)C2)C3)c1=O [Compound 4] |  | 170 µM | concentration dependent decrease in cellular respiration | 50 µM | > 200 µM |  | 202 M⁻¹ |  | > 200 µM
